From patent US9060961B2, “Molecules and methods for treatment and detection of cancer” (UNIVERSITY OF WASHINGTON, priority 2006, dated 2015)

System: T lymphocytes in peripheral blood mononuclear cells
Test: IFN-gamma ELISPOT of human T cells with IGF1R peptides
Format: cell-based
Conditions: for Immunogenicity Cancer: responders / cancer patients tested; for Immunogenicity Volunteer: responders / volunteer donors tested
Description: A scoring system based on internet available epitope prediction algorithms was developed to predict the peptides derived from IGF1R that have optimal binding affinity and promiscuity against multiple MHC class II molecules. […] After stimulating human T cells with the peptides, IFN-gamma secretion was determined via ELISPOT analysis. Five of the most immunogenic peptides were selected for in vivo evaluation in neu-transgenic mice to assess the potential of clinical efficacy.

TQYAVYVKAVTLTMV [p 575-589]
Immunogenicity Cancer: 1/10
Immunogenicity Volunteer: 1/5

YSFYVLDNQNLQQLW [p 418-432]
Immunogenicity Cancer: 1/10

IDIRNDYQQLKRLEN [p 37-5]
Immunogenicity Cancer: 1/10

LVIMLYVFHRKRNNS [p 951-965]
Immunogenicity Cancer: 3/10

SHALVSLSFLKNLRL [p 393-407]
Immunogenicity Cancer: 2/10
Immunogenicity Volunteer: 2/5

DYRSYRFPKLTVITE [p 69-83]
Immunogenicity Volunteer: 1/5

WSFGVVLWEIATLAE [p 1196-1210]
Immunogenicity Cancer: 2/10
Immunogenicity Volunteer: 1/5

VIEGYLHILLISKAE [p 54-68]
Immunogenicity Cancer: 2/10

LIIALPVAVLLIVGG [p 936-950]
Immunogenicity Cancer: 4/10
Immunogenicity Volunteer: 1/5

GVLVLRASFDERQPY [p 1332-1346]
Immunogenicity Cancer: 2/10

SKMIQMAGEIADGMA [p 1110-1124]
Immunogenicity Cancer: 1/10

IRGWKLFYNYALVIF [p 106-120]
Immunogenicity Cancer: 3/10
Immunogenicity Volunteer: 2/5

DERQPYAHMNGGRKN [p 1341-1355]
Immunogenicity Cancer: 1/10

ASNFVFARTMPAEGA [p 817-831]
Immunogenicity Cancer: 1/10

GMAYLNANKFVHRDL [p 1122-1136]
Immunogenicity Cancer: 1/10
